From PMC3407089, “Influence of GABAA Receptor α Subunit Isoforms on the Benzodiazepine Binding Site” (PLoS ONE, 2012)

Experiments:
[1] = molecular target: α1S205Cβ2γ2 GABAA receptor (Rattus norvegicus, UniProt P18508+P62813, S232C); test: Covalent reaction of 3-NCS at the binding level (residual radioligand binding, HEK293 membranes); settings: 3-NCS 30 min on ice, washed; residual [^3H]Ro15–1788 binding
Method: (§1) cDNAs coding for the αx (x = 1, 2, 3, 6), β2, and γ2S subunits DNA (20 µg : 20 µg : 20 µg) per 9 cm diameter dish were transfected in human embryonic kidney (HEK) 293 cells (American Type of Culture Collection, MD, USA, CRL 1573) using the calcium phosphate precipitation technique. For α5 containing receptors β2 was replaced by β1. […] Culturing of cells and membrane preparation were done as described before.
(§2) As detailed in previous work, [30], [33] this procedure included three steps: incubation of membranes expressing recombinant wild type or mutant receptors with the reactive agent followed by extensive washing of the membranes in order to remove non-reacted compound and a radioactive ligand binding assay to determine residual binding. No covalent reaction would result in 100% residual binding, and 100% covalent reaction would result in 0% residual binding.
(§3) Briefly, the membranes were re-suspended in phosphate buffer (100 mM KCl, 10 mM KH2PO4, 0.1 mM EDTA, pH 7.4) using a Glass/Teflon homogenizer. 0.1–1.0 mg/mL of protein were incubated in a total volume of 360 µL with either 10 µM (determination of degree of covalent reaction) or several concentrations of 3-NCS for 30 min on ice. Membranes were collected with rapid filtration on a round 7 mm diameter glass fiber filter (GF/C; Whatman) that was placed on a round 24 mm diameter glass fiber filter (GF/C; Whatman), both pre-washed with phosphate buffer. The reaction of 3-NCS with the receptor was stopped by washing of the filters six times with 5 mL phosphate buffer, each. The small filters with the deposited membranes were incubated in 0.12 mL phosphate buffer containing 5 nM [^3H]Ro15–1788. After 30 min the 7 mm filter was placed on a 24 mm filter and washed six times with 5 mL phosphate buffer each. Radioactivity was determined by liquid scintillation counting. Non-specific binding was determined in the presence of 100 µM Ro 15–1788. In control experiments, washing efficiency was estimated by placing radioactivity on the small filter. More than 99.95% of the radioactivity was removed (not shown).
(§4) Concentration response curves for 3-NCS were fitted with the equation C(c) = Cmax/(1+(EC50/c)), where c is the concentration of 3-NCS, EC50 the concentration of 3-NCS where half maximal covalent reaction was observed, Cmax is the maximal extent of the covalent reaction and C the measured extent of the covalent reaction.

[2] = molecular target: T1, α1T206Cβ2γ2 GABAA receptor (Rattus norvegicus, UniProt P18508+P62813, T233C); test: as above; settings: 3-NCS 30 min on ice, washed; residual [^3H]Ro15–1788 binding
Method: as §1, §2, §3, §4

[3] = molecular target: α2S204Cβ2γ2 GABAA receptor (Rattus norvegicus, UniProt P18508+P23576, S232C); test: as above
Method: as §1, §2, §3, §4

[4] = molecular target: α2S205Cβ2γ2 GABAA receptor (Rattus norvegicus, UniProt P18508+P23576, S233C); test: as above
Method: as §1, §2, §3, §4

[5] = molecular target: α2T206Cβ2γ2 GABAA receptor (Rattus norvegicus, UniProt P18508+P23576, T234C); test: as above
Method: as §1, §2, §3, §4

[6] = molecular target: α5S209Cβ1γ2 GABAA receptor (Rattus norvegicus, UniProt P18508+P19969, S240C); test: as above
Method: as §1, §2, §3, §4

[7] = molecular target: α5T210Cβ1γ2 GABAA receptor (Rattus norvegicus, UniProt P18508+P19969, T241C); test: as above
Method: as §1, §2, §3, §4

[8] = molecular target: α1S204Cβ2γ2 GABAA receptor; test: as above; design: key: n.r.: no covalent reaction; settings: 3-NCS 30 min on ice, washed; residual [^3H]Ro15–1788 binding
Method: as §1, §2
as §3, with “The reaction of 3-NCS with the receptor was stopped by washing of the filters six times with 5 mL phosphate buffer, each. The small filters with the deposited membranes were incubated in 0.12 mL phosphate buffer containing 5 nM [^3H]Ro15–1788. After 30 min the 7 mm filter was placed on a 24 mm filter and washed six times with 5 mL phosphate buffer each.” left out
as §4

[9] = molecular target: α6N204Cβ2γ2 GABAA receptor; test: as above; design: key: n.r.: no covalent reaction; settings: 3-NCS 30 min on ice, washed; [^3H]15–4513 as radioactive ligand
Method: as §1, §2
as §3, with “The reaction of 3-NCS with the receptor was stopped by washing of the filters six times with 5 mL phosphate buffer, each. The small filters with the deposited membranes were incubated in 0.12 mL phosphate buffer containing 5 nM [^3H]Ro15–1788. After 30 min the 7 mm filter was placed on a 24 mm filter and washed six times with 5 mL phosphate buffer each.” left out
as §4

[10] = molecular target: α6S203Cβ2γ2 GABAA receptor; test: as above; design: key: n.r.: no covalent reaction; settings: 3-NCS 30 min on ice, washed; [^3H]15–4513 as radioactive ligand
Method: as §1, §2
as §3, with “The reaction of 3-NCS with the receptor was stopped by washing of the filters six times with 5 mL phosphate buffer, each. The small filters with the deposited membranes were incubated in 0.12 mL phosphate buffer containing 5 nM [^3H]Ro15–1788. After 30 min the 7 mm filter was placed on a 24 mm filter and washed six times with 5 mL phosphate buffer each.” left out
as §4

α2β2γ2 receptors = molecular target: T2, α2β2γ2 receptors (Rattus norvegicus, UniProt P18508+P23576); test: Radioactive ligand binding / displacement of [^3H]Ro 15–1788
T2 construct: expressed in transfected cells; host or cells: HEK293 cells (ATCC CRL 1573), membranes
Method: For α5 containing receptors β2 was replaced by β1. […] Culturing of cells and membrane preparation were done as described before.
The properties of the recombinant mutant receptors were only estimated. For this affinity estimate, membranes were re-suspended in phosphate buffer using a Teflon homogenizer. […] The final protein concentration was 0.1–1 mg of protein/ml. […] Membranes were collected by rapid vacuum filtration on GF/C filters. After three washing steps (3 sec each) with 5 ml of phosphate buffer, the filter-retained radioactivity was determined by liquid scintillation counting.

mutated GABAA receptors = test: Time course of covalent reaction at the binding level (preliminary experiments); settings: 10 µM and 1 µM 3-NCS, not shown
Method: as §2
as §3, with “The reaction of 3-NCS with the receptor was stopped by washing of the filters six times with 5 mL phosphate buffer, each. The small filters with the deposited membranes were incubated in 0.12 mL phosphate buffer containing 5 nM [^3H]Ro15–1788. After 30 min the 7 mm filter was placed on a 24 mm filter and washed six times with 5 mL phosphate buffer each.” left out

[11] = molecular target: T1, α1T206Cβ2γ2 GABAA receptor; design: method as in PMID 19804380; settings: 10 µM 3-NCS; cited from earlier work
[12] = 3-NCS 30 min on ice, washed, residual [^3H]Ro15–1788 binding
[13] = 0.5 h, 10 µM 3-NCS, mutation homologous to α1S205, n = 3, read-out: Extent of covalent reaction (100% minus % residual binding)
[14] = 0.5 h, 10 µM 3-NCS, mutation homologous to α1T206, n = 3, read-out: Extent of covalent reaction (100% minus % residual binding)

T1 sequence (P62813 28-455 T233C): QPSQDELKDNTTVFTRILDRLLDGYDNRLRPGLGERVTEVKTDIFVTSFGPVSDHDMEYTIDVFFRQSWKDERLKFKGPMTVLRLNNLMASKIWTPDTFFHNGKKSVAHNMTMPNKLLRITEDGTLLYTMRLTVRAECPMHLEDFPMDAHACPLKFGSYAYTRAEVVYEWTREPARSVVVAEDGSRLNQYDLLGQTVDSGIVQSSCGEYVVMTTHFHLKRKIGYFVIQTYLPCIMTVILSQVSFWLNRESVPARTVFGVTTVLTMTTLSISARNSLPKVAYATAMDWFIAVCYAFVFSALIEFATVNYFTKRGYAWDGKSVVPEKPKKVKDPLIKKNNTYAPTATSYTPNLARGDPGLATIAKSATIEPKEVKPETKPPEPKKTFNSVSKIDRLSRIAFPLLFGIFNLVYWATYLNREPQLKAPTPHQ
T1 sequence (P18508 39-466): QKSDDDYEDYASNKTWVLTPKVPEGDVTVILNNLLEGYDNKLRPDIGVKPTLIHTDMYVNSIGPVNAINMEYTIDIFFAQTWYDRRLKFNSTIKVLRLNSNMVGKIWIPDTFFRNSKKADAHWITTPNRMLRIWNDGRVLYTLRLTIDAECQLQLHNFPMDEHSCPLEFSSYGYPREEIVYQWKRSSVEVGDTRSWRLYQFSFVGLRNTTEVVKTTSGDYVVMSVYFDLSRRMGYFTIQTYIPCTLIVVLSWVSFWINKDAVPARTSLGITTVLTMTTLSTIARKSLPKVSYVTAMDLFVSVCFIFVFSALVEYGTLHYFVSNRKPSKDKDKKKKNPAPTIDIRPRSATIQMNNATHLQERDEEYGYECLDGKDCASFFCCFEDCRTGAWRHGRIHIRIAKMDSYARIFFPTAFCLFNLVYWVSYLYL
T1 sequence (P63138 26-474 partner): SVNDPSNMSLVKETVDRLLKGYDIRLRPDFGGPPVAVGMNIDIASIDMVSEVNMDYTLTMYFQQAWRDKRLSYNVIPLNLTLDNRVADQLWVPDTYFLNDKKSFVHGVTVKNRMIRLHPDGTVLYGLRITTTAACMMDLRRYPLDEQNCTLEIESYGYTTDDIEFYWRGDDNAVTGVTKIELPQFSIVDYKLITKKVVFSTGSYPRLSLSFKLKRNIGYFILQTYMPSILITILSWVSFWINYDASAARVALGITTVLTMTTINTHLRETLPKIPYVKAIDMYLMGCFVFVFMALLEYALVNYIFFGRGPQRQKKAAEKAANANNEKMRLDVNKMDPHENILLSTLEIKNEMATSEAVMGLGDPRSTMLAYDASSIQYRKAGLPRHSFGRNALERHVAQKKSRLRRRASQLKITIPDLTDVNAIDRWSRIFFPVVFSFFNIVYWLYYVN
Sequence of α5T210Cβ1γ2 GABAA receptor (P19969 26-464 T241C): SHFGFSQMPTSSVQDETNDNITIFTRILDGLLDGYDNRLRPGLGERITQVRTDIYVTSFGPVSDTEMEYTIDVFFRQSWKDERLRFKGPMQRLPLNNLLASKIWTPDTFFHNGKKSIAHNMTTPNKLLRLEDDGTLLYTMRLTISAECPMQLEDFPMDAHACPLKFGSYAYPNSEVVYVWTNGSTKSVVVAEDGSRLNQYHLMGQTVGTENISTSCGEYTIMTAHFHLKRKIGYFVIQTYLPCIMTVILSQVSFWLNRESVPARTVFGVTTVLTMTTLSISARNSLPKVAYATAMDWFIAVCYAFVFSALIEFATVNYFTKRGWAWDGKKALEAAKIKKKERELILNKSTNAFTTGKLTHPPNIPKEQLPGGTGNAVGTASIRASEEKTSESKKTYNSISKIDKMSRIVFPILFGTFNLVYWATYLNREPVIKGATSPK
Sequence of α5T210Cβ1γ2 GABAA receptor (P18508 39-466): as the sequence (P18508 39-466) above
Sequence of α5T210Cβ1γ2 GABAA receptor (P15431 26-474 partner): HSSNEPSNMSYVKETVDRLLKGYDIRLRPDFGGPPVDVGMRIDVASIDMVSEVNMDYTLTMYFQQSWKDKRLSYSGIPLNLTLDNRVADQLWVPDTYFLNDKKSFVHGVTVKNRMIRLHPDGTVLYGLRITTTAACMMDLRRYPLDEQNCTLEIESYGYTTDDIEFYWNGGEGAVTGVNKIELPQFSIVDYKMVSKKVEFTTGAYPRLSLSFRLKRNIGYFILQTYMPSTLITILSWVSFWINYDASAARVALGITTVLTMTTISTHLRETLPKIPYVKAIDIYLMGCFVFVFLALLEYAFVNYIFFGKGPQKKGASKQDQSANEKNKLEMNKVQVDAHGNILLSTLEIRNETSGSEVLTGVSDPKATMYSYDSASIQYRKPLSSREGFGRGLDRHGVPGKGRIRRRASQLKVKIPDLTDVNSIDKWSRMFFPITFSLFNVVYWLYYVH
Sequence of α2S204Cβ2γ2 GABAA receptor (P23576 29-451 S232C): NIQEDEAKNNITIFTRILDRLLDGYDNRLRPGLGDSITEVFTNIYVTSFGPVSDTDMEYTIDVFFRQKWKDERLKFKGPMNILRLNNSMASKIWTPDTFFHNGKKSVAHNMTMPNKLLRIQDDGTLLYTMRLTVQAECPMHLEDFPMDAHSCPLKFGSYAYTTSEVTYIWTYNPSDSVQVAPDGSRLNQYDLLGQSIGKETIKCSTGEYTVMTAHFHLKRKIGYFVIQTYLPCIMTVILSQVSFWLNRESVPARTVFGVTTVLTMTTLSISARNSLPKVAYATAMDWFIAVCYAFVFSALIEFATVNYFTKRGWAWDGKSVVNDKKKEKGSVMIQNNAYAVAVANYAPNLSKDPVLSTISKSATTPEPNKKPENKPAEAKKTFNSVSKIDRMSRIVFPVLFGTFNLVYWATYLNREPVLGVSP
Sequence of α2S204Cβ2γ2 GABAA receptor (P18508 39-466): as the sequence (P18508 39-466) above
Sequence of α2S204Cβ2γ2 GABAA receptor (P63138 26-474 partner): as the sequence (P63138 26-474 partner) above
Sequence of α2S205Cβ2γ2 GABAA receptor (P23576 29-451 S233C): as the sequence (P23576 29-451 S232C) above, with C204S, S205C counted along it
Sequence of α2S205Cβ2γ2 GABAA receptor (P18508 39-466, stated change not applied): as the sequence (P18508 39-466) above
Sequence of α2S205Cβ2γ2 GABAA receptor (P63138 26-474 partner): as the sequence (P63138 26-474 partner) above
Sequence of α5S209Cβ1γ2 GABAA receptor (P19969 26-464 S240C): as the sequence (P19969 26-464 T241C) above, with S215C, C216T counted along it
Sequence of α5S209Cβ1γ2 GABAA receptor (P18508 39-466, stated change not applied): as the sequence (P18508 39-466) above
Sequence of α5S209Cβ1γ2 GABAA receptor (P15431 26-474 partner): as the sequence (P15431 26-474 partner) above
Sequence of α2T206Cβ2γ2 GABAA receptor (P23576 29-451 T234C): as the sequence (P23576 29-451 S232C) above, with C204S, T206C counted along it
Sequence of α2T206Cβ2γ2 GABAA receptor (P18508 39-466): as the sequence (P18508 39-466) above
Sequence of α2T206Cβ2γ2 GABAA receptor (P63138 26-474 partner): as the sequence (P63138 26-474 partner) above
T2 sequence (P23576 29-451): as the sequence (P23576 29-451 S232C) above, with C204S counted along it
T2 sequence (P63138 25-474 partner limits assumed): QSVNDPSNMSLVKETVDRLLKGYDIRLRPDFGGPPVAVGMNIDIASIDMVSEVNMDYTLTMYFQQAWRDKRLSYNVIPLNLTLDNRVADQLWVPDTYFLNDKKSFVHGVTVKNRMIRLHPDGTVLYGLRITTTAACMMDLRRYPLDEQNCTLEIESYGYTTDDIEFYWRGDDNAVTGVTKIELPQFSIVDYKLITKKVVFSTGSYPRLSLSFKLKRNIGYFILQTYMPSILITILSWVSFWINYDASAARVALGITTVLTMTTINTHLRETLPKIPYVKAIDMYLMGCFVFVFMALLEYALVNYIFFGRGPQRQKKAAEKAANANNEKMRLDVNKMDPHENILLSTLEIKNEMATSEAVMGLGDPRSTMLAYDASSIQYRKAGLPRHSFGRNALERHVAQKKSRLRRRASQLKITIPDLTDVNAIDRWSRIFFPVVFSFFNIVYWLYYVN
T2 sequence (P18508 39-466): as the sequence (P18508 39-466) above
Sequence of α1S205Cβ2γ2 GABAA receptor (P62813 28-455 S232C): as the sequence (P62813 28-455 T233C) above, with S205C, C206T counted along it
Sequence of α1S205Cβ2γ2 GABAA receptor (P18508 39-466): as the sequence (P18508 39-466) above
Sequence of α1S205Cβ2γ2 GABAA receptor (P63138 26-474 partner): as the sequence (P63138 26-474 partner) above

In the case of CN1C(=O)C(N=C=S)N=C(c2ccccc2)c2cc([N+](=O)[O-])ccc21 (stereo not drawn) [3-NCS], the EC50 [1] is reported as 0.63 ± 0.18 µM, the EC50 [2] is reported as 0.082 ± 0.028 µM and the EC50 [3, 12] is reported as 3.2 ± 2.3 µM. The inhibition at 10 µM ([3]; 0.5 h, 10 µM 3-NCS, mutation homologous to α1S204, n = 3, read-out: Extent of covalent reaction (100% minus % residual binding)) was 52%, the EC50 [4, 12] was 6.6 ± 5.4 µM and the inhibition at 10 µM [4, 13] was 39%. The EC50 [5, 12] was 0.19 ± 0.056 µM, the inhibition at 10 µM [5, 14] was 54% and the EC50 [6, 12] was 4.1 ± 2.2 µM. The inhibition at 10 µM [6, 13] was 54%, the EC50 [7, 12] was 0.45 ± 0.15 µM and the inhibition at 10 µM [7, 14] was 73%. For the same compound, the “EC50 of the covalent reaction” value [8] was “n.r”, the “EC50 of the covalent reaction” value [9] was “n.r. ^a” and the “EC50 of the covalent reaction” value [10] was “n.r. ^a”. The Ki (α2β2γ2 receptors) was 1.55 ± 0.25 µM, the “Time to maximum of covalent reaction” value (mutated GABAA receptors) was at most 15 s and the “Covalent reaction with 3-NCS (in words)” value [11] was “resulted in covalent reaction”.
